From patent US20250319055A1, “COMPOSITIONS FOR TREATING GENITAL HERPES AND METHODS OF THEIR USE” (priority 2024, published 2025)
≈ marks a conversion by molar mass, not a printed value. Where two headings read alike, the source gives them in different places.

Tests used:
[1] = tested on: HSV-2 mediated calcium flux in HEK293-RyR1 cells; test: Calcium flux assay with Fluo-4 Direct Calcium Assay Kit; type: cell-based; settings: for RFU drop in calcium flux: FIG. 6A-6B legend; for maximum average ΔRFU: treated cells minus cells only, HSV-2 MOI 0.01
Method: The Fluo-4 Direct™ Calcium Assay Kit was be used to assess calcium response in RyR1-expressing cells treated with a calcium agonist (Carbachol) or infected with HSV-2 MS at an MOI of 0.01. For the virus-infected cells, procedures as described above were followed but with a 96-well black plate.
Cells were seeded in 100 μL of incubation medium in black 96-well plates coated with poly-D-lysine at 5.0E+04 cells per well and incubated at 37° C. with 5% CO2 overnight (16-20 hours). […]
A 2× Fluo-4 Direct™ calcium reagent loading solution with 5 mM probenecid was prepared by adding 10 mL of Fluo-4 Direct™ calcium assay buffer and 200 μL of the 250 mM stock solution of probenecid to one bottle of 2× Fluo-4 Direct™ calcium reagent (labeled Component A). The solution was vortexed and allowed to sit for five minutes for complete dissolution. […]
The fluorescence of each well was measured directly after the addition of carbachol with the Biotek Cytation 5 plate reader using the fluorescence reader settings for excitation at 494/10 nm and emission at 520/10 nm. The fluorescence measurements in relative fluorescence units (RFU) were recorded and exported to Excel.
ΔRFU is given in relative fluorescent units (RFU) as the maximum response (TA or virus treated cells) minus the minimum response (cells only).
On day 3, a 250 mM stock solution of probenecid was prepared by adding 1 mL of Fluo-4 Direct™ calcium assay buffer (labeled Component C) to each 77 mg vial of water-soluble probenecid. The vial was vortexed until dissolved.
Plated cells were removed from the incubator. TA/virus dilutions were removed and 100 μL of incubation medium was added to the plate. Then, 100 μL of 2× Fluo-4 Direct™ calcium reagent loading solution was added. Plates were incubated for 30 minutes at 37° C. with 5% CO2 followed by 30 minutes at room temperature. Carbachol dilutions (100 μL) were added to the plate that contains only cells as a positive control.

[2] = tested on: HSV-2 MS in HEK293-RyR1 cells; test: HSV-2 cytopathic effect (CPE) inhibition assay, crystal violet staining; type: cell-based, Herpes Simplex Virus 2, strain MS; settings: for IC50: Human alphaherpesvirus 2, 72 h, read-out: IC50, CPE inhibition
Method: HSV-2 infection was established in HEK293-RyR1 cells by testing three different multiplicities of infection (MOI) as part of the development of the CPE inhibition assay. An inhibitor of HSV-2 was incubated with cells and subsequently infected with HSV-2 at three different MOIs. Cells-only and virus-only controls were included. Cells were observed daily to monitor CPE progression, and the incubation was allowed to continue until sufficient CPE of 60-80% is observed in the virus-only controls. CPE was quantified via crystal violet staining and results given as % inhibition and IC50 values, 50% of the maximum inhibitory dosage of the test article.
The virus was Herpes Simplex Virus 2, strain MS, lot 7172020, at MOI of 0.01 (ATCC, Catalog #VR-540). HEK293-RyR1 cell line was obtained from Kerafast (Cat. #EUR301). Growth medium was DMEM (High Glucose) supplemented with 10% FBS, 2 mM L-Glutamine, 1% Pen/Strep, 100 µg/ml Hygromycin. Incubation medium was DMEM (High Glucose) supplemented with 2% FBS, 2 mM L-Glutamine, 1% Pen/Strep. Infection medium was DMEM (High Glucose) supplemented with 2 mM L-Glutamine, 1% Pen/Strep. Acyclovir (as a control HSV-2 MS inhibitor) was stored at cell culture grade water (Ultrapure DNAse/RNase free distilled water, Thermo Scientific Cat. 10977015) and tested at concentrations of 10, 3.2, 1.0, 0.32, 0.10, 0.032, 0.010, 0.0032 50, 25, 12.5, 6.25, 3.125, 1.5625, 0.78125, 0.3906 100, 50, 25, 12.5, 6.25, 3.125, 1.5625, 0.78125 mg/ml. Carbachol (a Calcium agonist), obtained from Fisher Scientific (ASL0667403) was stored in cell culture-grade water and tested at concentrations of 333, 166.65, 83.325, 41.6625 mg/ml. […]
HSV-2 MS was prepared at the specific MOI in infection medium and added to the acyclovir/TA-containing wells in a dilution block. […] Plates were monitored daily to observe CPE levels. […]
After one hour, plates were washed with tap water and blotted on absorbent paper. Plates were allowed to air dry, and the absorbance of each well was read at 570 nm with a plate reader.
Absorbance values were exported into Excel. […]

[3] = base form versus salt form (Miller et al. 1993); cited from earlier work
[4] = tested on: HSV-2 genital herpes; test: Treatment of HSV-2 genital herpes in human subjects; type: in vivo
Description: An otherwise healthy person presented pain with urination and a solitary sore on the vulva. It was initially unclear by visible inspection if the solitary sore was herpes or a shave injury. […] The patient reported Pain 7/10, and worse with urination. […] The patient was given the formulation to use at home (two applications per day). The patient was also offered a prescription for 1 gram of Valtrex to be taken twice a day.
As a comparison, before the date of the patient's treatment, typical otherwise healthy female patients of this same age presenting similar herpes sores are given a prescription for Valtrex and take up to two weeks to resolve their herpes ulcers.
A second human subject with a long history of HSV-2 who has previously taken oral Valtrex™ (Valacyclovir) to resolve past HSV-2 ulcerations was administered a representative pharmaceutical composition of this disclosure as described in Example 1. The subject has previously resolved HSV-2 ulcerations in 5-7 days after outbreak when administered Valtrex. The subject was administered the representative tetracaine composition twice a day for two days at which point the subject's lesions were completely re-epithelialized and the pain was reduced to 0/10. Before treatment, the subject reported pain at 5/10 at max. […]

[5] = at the highest concentration tested

Row | Compound | RFU drop in calcium flux [1] | maximum average ΔRFU [1, 5] | IC50 ([2]; HSV-2 MOI 0.01, 5.0×10^4 HEK293-RyR1 cells per well, day 3) | fold higher average ΔRFU than Acyclovir [1, 5] | flux through the dermis [3] | IC50 [2] | cell morphology of treated cells ([2]; compared to cells only, virus-only and Acyclovir-treated cells, day 3 (FIG. 5D)) | time to resolve HSV-2 ulcerations after outbreak ([4]; person, past outbreaks, oral) | time to resolve herpes ulcers ([4]; typical otherwise healthy female patients of same age with similar herpes sores, prescription)
1 | Nc1nc2c(ncn2COCCO)c(=O)[nH]1 [Acyclovir] | about 2000 RFU | −1801.6 RFU | 0.0457 mg/mL (≈ 0.203 mM) |  |  |  |  |  | 
2 | CCCCNc1ccc(C(=O)OCCN(C)C)cc1 [Tetracaine, 2-(dimethylamino)ethyl 4-(butylamino)benzoate] | 4000 RFU | −6527.9 RFU |  | 3.6 fold | fluxes more readily than the salt form | 94.6 mg/mL (≈ 358 mM) | Abnormal cell morphology |  | 
3 | CC(C)[C@H](N)C(=O)OCCOCn1cnc2c(=O)[nH]c(N)nc21 [Valtrex] |  |  |  |  |  |  |  | 5 to 7 days | up to two
